Measurements reported in article PMC6934184, “Selective DNA-PKcs inhibition extends the therapeutic index of localized radiotherapy and chemotherapy” (The Journal of Clinical Investigation, 2019).

Biological target: T1, EPHA6 (Homo sapiens, UniProt Q9UF33)
T1 construct: purchased Thermo Fisher Scientific (Life Technologies) SelectScreen
Assay: SelectScreen LanthaScreen
Assay type: binding
Conditions: read-out: % displacement
Summary of the method: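 NU5455 was profiled across the SelectScreen Broad panel of kinase activity and binding assays. Z'LYTE reactions such as CSF1R ran at apparent Km ATP, while the Adapta CAMK1 assay used ATP listed as 10. Values are given as percent.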

T1 sequence (Q9UF33 23-1036): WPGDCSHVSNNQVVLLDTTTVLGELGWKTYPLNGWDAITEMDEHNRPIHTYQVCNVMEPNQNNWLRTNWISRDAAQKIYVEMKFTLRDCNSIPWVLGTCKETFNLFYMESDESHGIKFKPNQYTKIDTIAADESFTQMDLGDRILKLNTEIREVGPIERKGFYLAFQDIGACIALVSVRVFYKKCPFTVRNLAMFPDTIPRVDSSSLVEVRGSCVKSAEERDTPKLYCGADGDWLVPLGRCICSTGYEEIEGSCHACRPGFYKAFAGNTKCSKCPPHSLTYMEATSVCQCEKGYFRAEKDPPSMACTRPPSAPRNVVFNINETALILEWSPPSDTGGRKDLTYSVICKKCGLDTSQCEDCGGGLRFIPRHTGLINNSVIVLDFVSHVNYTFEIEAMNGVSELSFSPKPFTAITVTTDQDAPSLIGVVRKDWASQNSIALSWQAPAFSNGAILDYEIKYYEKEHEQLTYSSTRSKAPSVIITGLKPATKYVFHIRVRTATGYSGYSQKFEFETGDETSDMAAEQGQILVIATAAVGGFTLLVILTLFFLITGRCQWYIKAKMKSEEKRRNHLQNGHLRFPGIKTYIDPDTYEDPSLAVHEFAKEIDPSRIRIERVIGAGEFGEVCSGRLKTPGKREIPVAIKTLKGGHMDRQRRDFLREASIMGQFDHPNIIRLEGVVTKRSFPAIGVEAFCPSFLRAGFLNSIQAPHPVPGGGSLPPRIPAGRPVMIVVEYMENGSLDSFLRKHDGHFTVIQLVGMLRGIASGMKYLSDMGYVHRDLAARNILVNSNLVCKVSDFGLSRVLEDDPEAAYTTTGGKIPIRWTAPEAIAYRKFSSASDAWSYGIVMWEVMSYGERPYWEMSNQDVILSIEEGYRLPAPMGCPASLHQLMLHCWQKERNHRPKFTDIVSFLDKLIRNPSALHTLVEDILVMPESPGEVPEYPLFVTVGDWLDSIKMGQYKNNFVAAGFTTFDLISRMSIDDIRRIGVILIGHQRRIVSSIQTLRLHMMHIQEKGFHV

Question: Which inhibition at 1 µM does the source give for `CN(C(=O)CN1CCOCC1)c1ccc2sc3c(-c4cccc5c(=O)cc(N6CC7CCC(C6)O7)oc45)cccc3c2c1` [NU5455] here?
Answer: 1.6%
